Data on eleven compounds can be found in publication PMC10986521 (Microbiology Spectrum, 2024).

By EC50 is commonly meant the midpoint of the concentration-response curve. As usually defined, the IC50 is the concentration at which inhibition is half-maximal. Higher therefore signals lower potency.

Data set [1] concerns the target T1, FMDV 3Cpro (Foot-and-mouth disease virus A, UniProt A0A097I315). Kind of data set: cell-based. The arrangement: species or system FMDV A/IND287/96 strain. The note with it: Cell-based assay (EC50).
The next data set deals with SARS-CoV-2. To be noted: read-out: EC50 against SARS-CoV-2; cited from earlier work.
Another data set in a line: in vitro. To be noted: human.
For data set [2], the target named is T1, FMDV 3Cpro. Briefly: biochemical. The arrangement: species or system FMDV A/IND287/96 strain (serotype A). To be noted: FRET assay (IC50).
Data set [3] deals with FMDV. To be noted: cited from earlier work.
Data set [4] deals with FMDV. To be noted: read-out: in vitro potency against FMDV (EC50); cited from earlier work.
For data set [5], the system named is FMDV. The note with it: pig, in vivo; cited from earlier work.
The subject of data set [6] is FMDV. To be noted: cited from earlier work. The source holds these as a separate data set.
The test system of data set [7] is FMDV. To be noted: mouse, in vivo; cited from earlier work.

Each structure is given as a SMILES string.

With `CC(C)C[C@H](NC(=O)OCC(C)(C)Sc1ccccc1)C(=O)N[C@H](C=O)C[C@@H]1CCNC1=O` [Compound D1c], the EC50 on FMDV 3Cpro [1] was 1850 ± 350 nM; in the data set with SARS-CoV-2 it was 12 nM. The compound further registered a CC50 in the data set “in vitro” of more than 50000 nM. For the same compound, on FMDV 3Cpro [2], half-maximal inhibition (IC50) was put at 1200 ± 710 nM.

Consider `COc1ccc(-c2cc(=O)c3c(O)cc(O)c(-c4cc(-c5cc(=O)c6c(O)cc(O)cc6o5)ccc4OC)c3o2)cc1` [isoginkgetin], for which the “replication of FMDV in cell culture via inhibiting 3Cpro” value with FMDV [3] is “inhibited the replication of FMDV in cell culture”.

Take `CCOC(=O)/C=C/[C@H](C[C@@H]1CCNC1=O)NC(=O)[C@@H](CC(=O)[C@@H](NC(=O)c1cc(C)on1)C(C)C)Cc1ccc(F)cc1` [AG7088, Rupintrivir, reference compound]: the figures for the concentration for a half-maximal effect (EC50) in the data set on FMDV [4] and on FMDV 3Cpro [1] were 10000 to 20000 nM and 10300 ± 200 nM, respectively. In the data set “in vitro”, this compound yielded a CC50 of more than 50000 nM. In addition, the midpoint of inhibition against FMDV 3Cpro [2], the IC50, lay at 4300 ± 200 nM.

As to `Oc1ccccc1-c1nc2c3ccccc3c3ccccc3c2[nH]1` [NSC332670], the “replication of FMDV in cell culture via inhibiting 3Cpro” value with FMDV [3] is reported as “inhibited the replication of FMDV in cell culture”.

On to `NC(=O)c1ncc[nH]c1=O` [Compound T-1105], for which the “viremia in FMDV-challenged pigs” value in the data set on FMDV [5] is reported as “reduced or prevented viremia”.

Regarding `CC(C)C[C@H](NC(=O)OCC(C)(C)Sc1ccccc1)C(=O)N[C@@H](C[C@@H]1CCNC1=O)C(O)S(=O)(=O)O` (some centres unmarked) [Compound D1d], the half-maximal effective concentration (EC50) is 1500 ± 430 nM at FMDV 3Cpro [1] and 10 nM in the data set with SARS-CoV-2. This compound also came in with a CC50 in the data set “in vitro” of more than 50000 nM. At FMDV 3Cpro [2], this compound displayed a 50% inhibitory concentration (IC50) of 1010 ± 420 nM.

For the compound `Cc1cc(CCCOc2c(C)cc(-c3noc(C(F)(F)F)n3)cc2C)on1` [pleconaril], the “in vitro activity against FMDV (EC50)” value in the data set with FMDV [6] is “low micromolar to millimolar range”.

As for `O=c1cc(-c2ccc(O)c(O)c2)oc2cc(O)cc(O)c12` [luteolin], the “replication of FMDV in cell culture via inhibiting 3Cpro” value in the data set on FMDV [3] was “inhibited the replication of FMDV in cell culture”.

Regarding `O=c1c(O)c(-c2ccc(O)c(O)c2)oc2cc(O)cc(O)c12` [quercetin], in the data set with FMDV [3], the “replication of FMDV in cell culture via inhibiting 3Cpro” value is “inhibited the replication of FMDV in cell culture”.

For the compound `CCCCOc1nc(N)c2c(n1)N(Cc1cccc(CN3CCCC3)c1)CC(=O)N2` [GS-9620], the “survival rate in FMDV-vaccinated and un-vaccinated mice” value with FMDV [7] is “enhanced survival rate”.

For `NC(=O)c1ncn([C@@H]2O[C@H](CO)[C@@H](O)[C@H]2O)n1` [ribavirin], in the data set on FMDV [6], the “in vitro activity against FMDV (EC50)” value was “low micromolar to millimolar range”.
